Where two headings read alike, the source gives them in different places.

One assay concerns HEK293 cell line. Particulars: glutamine-free EX-CELL 293 SFM, MSX 0-1000 μM, suspension culture.
Assay [1] deals with HEK293_GS-KO host cell line. Particulars: glutamine-free selection medium. How it is done:
(§1) First, the cells were inoculated in T-25 flask containing 5 ml of DMEM supplemented with 1×GSEM, 7% (v/v) FBS and glutamine at the density of 4×10^5 cells/ml. 24 hours later, when the cultured cells reached 90% of confluency in the flask, the vector containing a target protein gene mixed with liposome was additionally added to the gs gene knockout HEK293 cell line prepared in Experimental Example 1. 24 hours later, the selection marker protein (GS) inhibitor MSX was treated to the selection medium (glutamine-free DMEM supplemented with 1×GSEM and 10% (v/v) dFBS) at the concentrations of 0 μM, 25 μM, 50 μM, and 100 μM. The cells introduced with the vector were inoculated in the 96 well plate by 200 μl/well. The wild type HEK293 host cell line was also introduced with a target protein gene by the same manner as described above, followed by the selection from the 96 well plate. The cell concentration for the inoculation into the 96 well plate was determined by the concentration at which only one clone would survive after 3 weeks of selection period. To select the MSX resistant cell line (transformed cell line), the cells showing MSX resistance could be collected as a pool or prepared as each individual clone and herein the cell line was collected as an individual clone.
(§2) In the table above, “survival rate” was obtained by dividing the number of all the wells containing the cell by the number of the total inoculated wells.
(§3) The cells inoculated in a 96 well plate were observed under microscope and the medium was replaced every 5˜7 days. […] The collected cells were inoculated in a 48 well plate (500 μl). When the cells were grown in the well, the cells were inoculated again in a 24 well plate (1 ml). When the cells were fully grown in the 24 well plate, the cells were collected and inoculated in another 24 well plate containing 1 ml of culture medium at the density of 1×10^5 cells/ml. To quantify the production of the target protein, batch culture was performed for 6 days. On the 6th day, the medium was collected and ELISA was performed with the target protein to measure the productivity of each clone. By the method above, 50 clones originated from the gs knockout HEK93 cell line were constructed each in the presence of 0 μM, 25 μM, and 50 μM of MSX. 50 control clones originated from the wild type HEK293 cell line were also constructed for comparison.
(§4) In the Table above, “selection efficiency” indicates the portion of high production clones (those clones that could produce a target protein at least 1 μg/μl until the 6th day) in 50 constructed clones at each condition.

The subject of assay [2] is wild type HEK293 host cell line. Particulars: glutamine-free selection medium. How it is done:
as §1, §2, §3, §4

Description for HEK293 cell line: The cell growth rate and the cell viability were investigated in the course of culture of HEK293 cell line with the addition of different concentrations of MSX.
Particularly, HEK293 host cells were inoculated in 50 ml of the glutamine-free EX-CELL® 293 SFM medium (Sigma), and also inoculated in the control medium supplemented with 4 mM glutamine. To the experimental group, MSX, the glutamine synthetase inhibitor, was added at the concentrations of 0 μM, 100 μM, 300 μM, 500 μM, and 1000 μM, respectively. The cell mixture was inoculated in Erlenmeyer flask at the density of 3×10^5 cells/ml, followed by suspension culture. 1 ml of the cell culture fluid was taken from each flask every 24 hours, followed by investigation of the cell concentration and the cell viability.

For the compound `CS(=N)(=O)CC[C@H](N)C(=O)O` (stereo partly shown) [MSX, methionine sulfoximine], the “resistance against MSX (cell growth and cell viability)” value with HEK293 cell line is “high resistance”. Besides, the Survival rate in assay [1] (MSX 25 μM, inoculation 2000 cells/96 well) was 11.9%; in assay [1] (MSX 50 μM, inoculation 2000 cells/96 well), 2.3%; in assay [1] (MSX 100 μM, inoculation 5000 cells/96 well), 0.5%; in assay [2] (MSX 25 μM, inoculation 1 cells/96 well), 22.9%; in assay [2] (MSX 50 μM, inoculation 10 cells/96 well), 28.1%; in assay [2] (MSX 100 μM, inoculation 500 cells/96 well) it was 75.8%.

The values are drawn from US9567578B1, “Cell line containing a knockout of the glutamine synthetase (GS) gene and a method of producing target proteins using a GS knockout HEK293 cell line” (Korea Advanced Institute of Science and Technology, priority 2016, dated 2017).
